“Also recorded” adds a separate entry of the source. Structures can show the parent of a compound that is named as a salt.
Experiments:
[1] = heart rate and adverse signs in the treated mice; assay type: in vivo; conditions: for Heart rate, AVERAGE, after: after administration; for Heart rate, AVERAGE, before: before administration; for adverse signs observed (tachycardia, shaking): intraperitoneal, Group I sildenafil citrate, Group III cubebin
Procedure: (§1) 42 Swiss mice have been used, adults, between 18 and 24 weeks old, weighing between 25 and 35 grams, from the Biotherium of the University of Franca (UNIFRAN), which were confined in plastic cages with metal fences and fed with standard feed (Labina-Purina) and water ad libitum, at room temperature of 22° C.
After a period of adaptation, the animals have been divided into seven groups, as per Table 1 below: […]

[2] = biological target: phosphodiesterase 5 (PDE-5) (Homo sapiens, UniProt O76074); assay: activity test for the enzyme phosphodiesterase 5 (PDE-5); assay type: biochemical; conditions: PDE-5 enzyme activity; read-out: 50% effective dose (DE50)
patients = conditions: cited from earlier work; for interaction with nitrates: combination with nitroglycerin / organic nitrates; for adverse effects: patients
[3] = cited from earlier work
Swiss mice = assay: vasodilating effect / penile erection test in Swiss mice, intraperitoneal administration, with penile histology; assay type: in vivo
Procedure: as §1
After a period of adaptation, the animals have been divided into seven groups, as per Table 1 below:
Animals from all groups have been kept under the same conditions for four hours for later evaluation of the studied pharmacological effect. They were subsequently anesthetized with a solution of 1.5 mg of ketamine plus 0.1 mg of xylazine and then euthanized to take off the penile tissue. Each sample was immediately stocked in 10% formaldehyde to make histological slides.

For `OC1OC[C@H](Cc2ccc3c(c2)OCO3)[C@H]1Cc1ccc2c(c1)OCO2` (mixture of isomers) [cubebin], the “Heart rate, AVERAGE, after” value [1] was 553.5, the “Heart rate, AVERAGE, before” value [1] was 621.7 and the “adverse signs observed (tachycardia, shaking)” value [1] was “not causing tachycardia or shaking”. It also gave an EC50 [2] of 16.6 ± 8.2 µM.
For `CN1CC(=O)N2[C@H](c3ccc4c(c3)OCO4)c3[nH]c4ccccc4c3C[C@@H]2C1=O` [Tadalafil], the interaction with nitrates (patients) is given as “modest synergic effects” and the adverse effects (patients) is given as “patients did not have red skin”.
For `CCCc1nc(C)c2c(=O)[nH]c(-c3cc(S(=O)(=O)N4CCN(CC)CC4)ccc3OCC)nn12` [Vardenafil], the “time to maximum plasma concentration” value ([3]; single doses of 10 or 20 mg) is given as at most 0.7 h and the interaction with nitrates (patients) is given as “minimum changes in heart rate and blood pressure”.
With `O[C@H]1OC[C@H](Cc2ccc3c(c2)OCO3)[C@H]1Cc1ccc2c(c1)OCO2` [cubebin] the ejaculation after treatment (Swiss mice; mice of Group III, FIGS. 4c and 4d) was “ejaculating after said treatment”, the “penile erection / sexual behaviour observed” value (Swiss mice; mice, intraperitoneal, Group I sildenafil citrate, Group III 20 mg/kg cubebin) was “prolonged erection and licked the penis; also recorded: penile erection” and the “histology of corpus cavernosum” value (Swiss mice; mouse penile tissue, H. E., 400×) was “void space very dilated and congested”.
For `CCCc1nn(C)c2c(=O)[nH]c(-c3cc(S(=O)(=O)N4CCN(C)CC4)ccc3OCC)nc12` [sildenafil citrate], the “Heart rate, AVERAGE, after” value [1] was 627.75, the “Heart rate, AVERAGE, before” value [1] was 628.5 and the “adverse signs observed (tachycardia, shaking)” value [1] was “tachycardia, shaking and testicle tumescence”. The “half life in circulation” value ([3]; in vivo) was “four”, the “deaths related to the drug reported” value (patients; in vivo) was “More than 500 deaths” and the rate of deaths (patients; in vivo) was “fifty”. The adverse effects (patients) was “cephalea, red skin, dyspepsia, nose congestion and visual disturbances”.
For hydroethylic desildenafil citrate, the EC50 [2] was 38.4 ± 1.8 µM.
